Results reported in patent US8791132B2, “Compounds and methods for treatment of hypertension” (Medivation Technologies, Inc., priority 2011, dated 2014).
Blank lines part the entries; values can stand above or below the compound they belong to.

Assays:
[1] = tested on: SH-SY5Y cells over-expressing α-syn; test: Cell viability (MTS reduction) in SH-SY5Y cells over-expressing α-synuclein; format: cell-based; settings: Homo sapiens, 336 h, α-syn over-expression (−dox), compounds at 10 nM, +dox control = 100, 14 days, read-out: Relative cell viability protection
Method: Cell Culture. SH-SY5Y cells stably transfected with a doxycyline-inducible wild-type α-synuclein (α-syn) gene along with control SH-SY5Y cells over-expressing the β-galactosidase (β-gal) gene (a gift from L. Stefanis, Division of Basic Neurosciences, Biomedical Research Foundation of the Academy of Athens, Athens, Greece) are cultured as described by Vekrellis et al. (Vekrellis K, Xilouri M, Emmanouilidou E, Stefanis L. (2009). Inducible over-expression of α-syn in human neuronal cells leads to caspase-dependent non-apoptotic death. J Neurochem 109, 1348-1362). In accordance with this method, cells are cultured and maintained in RPMI 1640, 10% fetal bovine serum supplemented with 250 μg/mL G418 and 50 μg/mL Hygromycin B. Expression of α-syn is switched off in stock cultures with doxycycline (2 μg/mL). For experimental procedures, cells are plated at (4−8×10^4 cells/cm^2) and differentiated in absence of doxycycline and in the presence of 20 μM all-trans retinoic acid (RA) (Sigma, St Louis, Mo., USA).
Viability Assay: Cells are cultured in 96-well plates. After 24 h, cells are treated with RA and Compounds of Invention at 0.1 and 10 nM in the absence of doxycyline. Culture medium with RA and drugs is fully replaced after 7 days. Cell viability is measured by the release of lactate dehydrogenase (LDH) from necrotic cells into the culture medium and by measuring the capacity of cells to metabolize MTS tetrazolium (MTS) after 14 days in culture. LDH leakage is assessed according to the Cytotoxicity Detection KitPlus (Roche, Mannheim, Germany) and MTS reduction is assessed by the CellTiter 96® AQueous One Solution Cell Proliferation assay (Promega Corporation, Madison, Wis., USA).
Assay results for the experiments with α-syn over-expression are presented as the MTS reduction capacity (cell viability) of control cells (+dox), cells over-expressing α-syn (−dox), and cells over-expressing α-syn incubated with Compounds of the Invention at 0.1 nM (FIG. 18A) or 10 nM (FIG. 18B).

[2] = target: T1, rat adrenergic α1B receptor (Rattus norvegicus, UniProt P15823); test: Radioligand binding, adrenergic α1B ([3H]Prazosin); settings: compound at 0.1 μM, [3H]Prazosin, repeat assays, each datapoint shown; for Percentage inhibition of ligand binding, Adrenergic α1B: 0.1 µM
T1 construct: rat adrenergic α1B receptor obtained from Wistar Rat liver; from tissue; host or cells: Wistar rat liver
T1 sequence (P15823 1-515): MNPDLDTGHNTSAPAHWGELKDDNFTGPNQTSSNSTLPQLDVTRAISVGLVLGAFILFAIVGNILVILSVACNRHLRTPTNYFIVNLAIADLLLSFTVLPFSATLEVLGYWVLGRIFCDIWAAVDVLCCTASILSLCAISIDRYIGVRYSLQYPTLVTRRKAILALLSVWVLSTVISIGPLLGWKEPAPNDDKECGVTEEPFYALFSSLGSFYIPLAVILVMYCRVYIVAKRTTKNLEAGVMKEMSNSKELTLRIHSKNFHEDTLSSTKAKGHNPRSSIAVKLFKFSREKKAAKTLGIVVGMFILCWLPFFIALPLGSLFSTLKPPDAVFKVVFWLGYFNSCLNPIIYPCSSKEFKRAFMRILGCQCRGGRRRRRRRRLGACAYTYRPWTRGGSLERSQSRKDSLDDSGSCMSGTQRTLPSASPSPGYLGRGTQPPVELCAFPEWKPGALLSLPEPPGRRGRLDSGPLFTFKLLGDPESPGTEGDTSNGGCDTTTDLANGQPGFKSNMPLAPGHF
Summary of the method: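 Incubation ran 60 min at 25 °C in Tris-HCl buffer (50 mM, pH 7.4, 0.5 mM EDTA) with Wistar rat liver α1B receptor. 10 μM phentolamine set non-specific binding.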

[3] = target: T2, human recombinant adrenergic α2B receptor (Homo sapiens, UniProt P18089); test: Radioligand binding, adrenergic α2B ([3H]Rauwolscine); settings: [3H]Rauwolscine, repeat assays, each datapoint shown
T2 construct: expressed in transfected cells; host or cells: CHO-K1
T2 sequence (P18089 1-450): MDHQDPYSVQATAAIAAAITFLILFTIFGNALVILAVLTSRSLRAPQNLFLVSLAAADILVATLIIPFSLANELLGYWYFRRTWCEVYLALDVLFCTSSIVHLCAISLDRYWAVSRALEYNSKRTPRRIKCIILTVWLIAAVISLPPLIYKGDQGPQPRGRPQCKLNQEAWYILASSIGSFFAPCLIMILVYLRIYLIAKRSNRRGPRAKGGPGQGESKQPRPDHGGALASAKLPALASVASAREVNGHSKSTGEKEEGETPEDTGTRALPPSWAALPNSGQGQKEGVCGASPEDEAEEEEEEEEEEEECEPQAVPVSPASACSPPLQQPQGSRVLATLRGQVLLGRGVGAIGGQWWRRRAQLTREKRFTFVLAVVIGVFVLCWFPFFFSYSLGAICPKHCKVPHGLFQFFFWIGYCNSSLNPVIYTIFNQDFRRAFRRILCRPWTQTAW
Summary of the method: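 Assay used CHO-K1-expressed human α2B receptor in Tris-HCl pH 7.4 buffer with MgCl2, EDTA and BSA; 60 min incubation at 25 °C.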

[4] = target: T3, human recombinant adrenergic α2A receptor (Homo sapiens, UniProt P08913); test: Radioligand binding, adrenergic α2A ([3H]MK-912); settings: compound at 0.1 μM; [3H]MK-912; repeat assays, each datapoint shown
T3 construct: expressed in transfected cells; host or cells: insect Sf9 cells
T3 sequence (P08913 1-465): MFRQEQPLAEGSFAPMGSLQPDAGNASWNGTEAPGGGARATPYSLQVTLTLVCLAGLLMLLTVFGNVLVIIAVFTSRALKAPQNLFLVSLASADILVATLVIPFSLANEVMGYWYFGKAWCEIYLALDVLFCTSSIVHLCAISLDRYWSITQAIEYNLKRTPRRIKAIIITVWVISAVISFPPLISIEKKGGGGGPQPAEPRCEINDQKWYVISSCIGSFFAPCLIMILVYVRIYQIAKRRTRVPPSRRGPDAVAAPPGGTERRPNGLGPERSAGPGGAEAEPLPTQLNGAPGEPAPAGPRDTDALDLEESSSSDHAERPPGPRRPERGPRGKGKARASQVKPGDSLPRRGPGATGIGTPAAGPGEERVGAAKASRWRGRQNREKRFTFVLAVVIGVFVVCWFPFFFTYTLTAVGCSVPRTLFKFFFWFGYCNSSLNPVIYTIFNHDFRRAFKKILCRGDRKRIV
Summary of the method: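 Receptor expressed in insect Sf9 cells, assayed in 50 mM Tris-HCl pH 7.4 with 12.5 mM MgCl2 and 2 mM EDTA. Compounds incubated with 1 nM [3H]MK-912 for 60 min at 25 °C; nonspecific binding defined with 10 μM WB-4101. Filter-bound radioactivity counted; values are percent inhibition of specific binding.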

SH-SY5Y cells = test: Cell viability (MTS reduction) in 4-Br-A23187-treated SH-SY5Y cells; format: cell-based; settings: MTS reduction capacity
Method: After 24 h, cells were depleted from FBS and kept in culture for 24 h before the experiment. Cells were then treated with 4-Br-A23187 (2 μM), hydrogen peroxide (300 μM) or the mitochondrial toxin rotenone (25 μM) in the presence of vehicle or Compound of the Invention for 24 h. Cell death was determined by measurements of LDH release according to the Cytotoxicity Detection KitPlus (Roche, Mannheim, Germany). Cell viability was determined by measuring the capacity of cells to metabolize MTS tetrazolium (MTS) according to the Cytotoxicity Detection KitPlus (Roche, Mannheim, Germany) and MTS reduction is assessed by the CellTiter 96® AQueous One Solution Cell Proliferation assay (Promega Corporation, Madison, Wis., USA). Compounds were screened at 10 nM, using DMSO as vehicle. Assay results for the experiments with hydrogen peroxide are presented as the LDH release (cell death) of untreated cells (control), hydrogen peroxide-treated cells (vehicle), and co-incubation of hydrogen peroxide with Compounds of the Invention treated cells normalized to the vehicle (FIG. 17A). This assay assesses the ability of the test compounds to protect against cell death that is mediated by mitochondrial dysfunction. In the assay, the calcium ionophore 4-Br-A23187 is used to challenge the cells, causing calcium levels to rise in mitochondria, which leads to depolarization and cell death. Test compounds are assessed for their ability to prevent cell death in response to challenge with 4-Br-A23187.

[5] = target: T4, human recombinant adrenergic α1D receptor (Homo sapiens, UniProt P25100); test: Radioligand binding, adrenergic α1D ([3H]Prazosin); settings: compound at 0.1 μM; [3H]Prazosin; repeat assays, each datapoint shown; read-out: Percentage inhibition of ligand binding, Adrenergic α1D
T4 construct: expressed in transfected cells; host or cells: HEK-293
T4 sequence (P25100 1-572): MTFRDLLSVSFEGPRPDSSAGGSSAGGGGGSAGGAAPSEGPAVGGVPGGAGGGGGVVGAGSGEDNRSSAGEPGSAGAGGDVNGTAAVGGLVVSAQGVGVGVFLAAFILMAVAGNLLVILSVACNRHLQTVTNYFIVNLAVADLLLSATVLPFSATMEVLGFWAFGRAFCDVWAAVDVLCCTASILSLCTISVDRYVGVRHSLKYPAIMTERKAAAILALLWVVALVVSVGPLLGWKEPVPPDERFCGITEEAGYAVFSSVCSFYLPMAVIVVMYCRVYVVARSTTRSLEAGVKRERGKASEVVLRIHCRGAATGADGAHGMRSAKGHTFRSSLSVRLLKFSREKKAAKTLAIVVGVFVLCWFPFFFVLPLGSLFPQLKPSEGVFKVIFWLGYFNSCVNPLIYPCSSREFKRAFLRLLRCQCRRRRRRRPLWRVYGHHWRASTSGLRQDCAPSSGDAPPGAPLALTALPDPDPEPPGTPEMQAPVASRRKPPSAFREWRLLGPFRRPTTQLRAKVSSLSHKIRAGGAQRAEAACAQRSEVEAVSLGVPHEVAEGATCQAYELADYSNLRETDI
Method: Compounds were incubated with 0.6 nM [3H]Prazosin for 60 min at 25° C. Non-specific binding was estimated in the presence of 10 μM phentolamine. Receptor proteins were filtered and washed, the filters were then counted to determine [3H]Prazosin specifically bound. […] Biochemical assay results are presented as the percent inhibition of specific binding in Table B1.

[6] = tested on: conscious New Zealand White rabbits; test: Blood pressure in conscious rabbits; format: in vivo, rabbit; settings: i.v. cumulative dose-response study, Compound 3b maximum at 10 mg/kg
Method: Methods: Four adult New Zealand White rabbits of both sexes were chosen for these studies. […] To unveil peripheral effects of Compound 3b, two sets of acute studies were conducted in rabbits. […] A single intravenous bolus dose at 3 mg/kg was given and a time-course study was conducted in the second set of studies. Systolic, […], mean and […] blood pressures were recorded in both the studies. […] In a separate set of studies, Clonidine (positive control) was tested where all experimental procedures including dose-regimen were identical to that of the studies with […].

[7] = 4-Br-A23187 2 μM, 24 h, compounds at 10 nM

Structure (SMILES): Cc1ccc2c(c1)c1c(n2CC(O)c2ccncc2)CCNC1 (stereo not drawn) [Cpd39a]
viability at 0.01 µM [1]: 80.8%

Structure (SMILES): Cc1ccc2c(c1)c1c(n2CC(O)c2ccncc2)CCN(C)C1 (stereo not drawn) [Cpd3b]
viability at 0.01 µM [1]: 78.3%

Percentage inhibition of ligand binding, Adrenergic α1B [2]: 25%
Percentage inhibition of ligand binding, Adrenergic α2B ([3]; compound at 0.03 μM, 0.03 µM): 89%
Percentage inhibition of ligand binding, Adrenergic α2A [4]: 1%
Structure (SMILES): Cc1ccc2c(c1)c1c(n2CC(O)c2ccncc2)CCNC1 (stereo not drawn) [compound 39, 2-(8-methyl-1,2,3,4-tetrahydro-pyrido[4,3-b]indol-5-yl)-1-pyridin-4-yl-ethanol]
Relative cell viability protection (SH-SY5Y cells; [7]): 0.36

Percentage inhibition of ligand binding, Adrenergic α1B [2]: 60%
inhibition at 0.1 µM ([2]; read-out: Percentage inhibition of ligand binding, Adrenergic α1B): 51%
inhibition at 0.1 µM ([3]; compound at 0.1 μM, read-out: Percentage inhibition of ligand binding, Adrenergic α2B): 101%
inhibition at 0.1 µM [5]: 12%
Structure (SMILES): CN1CCc2c(c3cc(Cl)ccc3n2CC(O)c2ccncc2)C1 (stereo not drawn) [compound 4]
Relative cell viability protection (SH-SY5Y cells; [7]): 0.3463

Structure (SMILES): Clc1cccc(Cl)c1N=C1NCCN1 [Clonidine, clonidine, reference compound]
maximum arterial blood pressure drop [6]: −6 mmHg

Structure (SMILES): N#CC(C#N)=NNc1ccc(OC(F)(F)F)cc1 [FCCP, p-trifluoromethoxyphenylhydrazone, reference compound]
Relative cell viability protection (SH-SY5Y cells; FCCP at 10 μM for 30 min as a control): 0.1035

Structure (SMILES): CN1CCc2c(c3cc(Cl)ccc3n2CC(O)c2ccncc2)C1 (stereo not drawn) [Cpd4a]
viability at 0.01 µM [1]: 77.5%

Structure (SMILES): Cc1ccc2c(c1)c1c(n2CC(C)(O)c2cccnc2)CCN(C)C1 (stereo not drawn) [Cpd5b]
viability at 0.01 µM [1]: 85.3%
